From patent US4760136A, “Chartreusin derivatives and salts thereof” (Ishihara Sangyo Kaisha, Ltd., priority 1984, dated 1988)

Legend:
P-388 leukemia cells = assay: Antitumor activity: P-388 leukemia cells inoculated intraperitoneally, drug administered intravenously, BDF1 mice; assay type: in vivo; settings: Mus musculus, P388, iv, BDF1 mice, P-388 i.p., read-out: T/C (%) of MST; for response vs control in vivo at 20 mg/kg: dose b: 20 mg/kg × 3, i.v. on days 1, 5 and 9; for response vs control in vivo at 40 mg/kg: dose c: 40 mg/kg × 3, i.v. on days 1, 5 and 9; for response vs control in vivo at 80 mg/kg: dose f: 80 mg/kg × 3, i.v. on days 1, 5 and 9; for response vs control in vivo at 60 mg/kg: dose e: 60 mg/kg × 3, i.v. on days 1, 5 and 9; for response vs control in vivo at 10 mg/kg: dose a: 10 mg/kg × 3, i.v. on days 1, 5 and 9
In short: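 Drug dosing was intravenous on the first, fifth and ninth days after intraperitoneal inoculation of P-388 leukemia cells (1×10^6 per mouse) into BDF1 mice. Vehicles were physiological saline alone, or saline with small amounts of sodium carboxymethyl cellulose or Tween-80.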

[1] = Acute toxicity, intravenous (once), ddY mice; assay type: in vivo; settings: mouse, in vivo, iv, formulated per Preparation Example
From the text: In Table 7 are shown acute toxicity values (LD50, mg/kg) in ddY mice in the case of intravenously administering (once) each of the compounds of this invention in the form of preparations shown in the Preparation Examples shown in Table 7.

COC1C(O)C(C)OC(OC2C(Oc3cccc4c(OC(=O)C(C)CNC(=O)OCc5ccccc5)c5c(=O)oc6ccc(C)c7c(=O)oc(c34)c5c67)OC(C)C3OC(c4cccc(F)c4)OC32)C1O (stereo not drawn) [Compound No. 60]
response vs control in vivo at 20 mg/kg (P-388 leukemia cells): 176% | response vs control in vivo at 40 mg/kg (P-388 leukemia cells): 210% | LD50 [1]: ≥ 40 mg/kg

COC1C(O)C(C)OC(OC2C(Oc3cccc4c(OC(=O)C(Cc5ccccc5)NC(=O)OCc5ccccc5)c5c(=O)oc6ccc(C)c7c(=O)oc(c34)c5c67)OC(C)C3OC(c4ccccc4)OC32)C1O (stereo not drawn) [compound 122]
response vs control in vivo at 40 mg/kg (P-388 leukemia cells): 135% | LD50 [1]: ≥ 40 mg/kg

COC1C(O)C(C)OC(OC2C(Oc3cccc4c(OC(=O)CCNC(=O)CNC(=O)OCc5ccccc5)c5c(=O)oc6ccc(C)c7c(=O)oc(c34)c5c67)OC(C)C3OC(c4ccccc4)OC32)C1O (stereo not drawn) [compound 75]
response vs control in vivo at 20 mg/kg (P-388 leukemia cells): 153% | response vs control in vivo at 40 mg/kg (P-388 leukemia cells): 197% | LD50 [1]: ≥ 40 mg/kg

CO[C@H]1[C@@H](O)[C@@H](C)O[C@H](O[C@H]2[C@H](Oc3cccc4c(OC(=O)c5ccc(C(F)(F)F)cc5)c5c(=O)oc6ccc(C)c7c(=O)oc(c34)c5c67)O[C@H](C)[C@@H]3OC(c4ccccc4)O[C@@H]32)[C@@H]1O (stereo partly drawn) [compound 195]
response vs control in vivo at 40 mg/kg (P-388 leukemia cells): 165% | LD50 [1]: ≥ 40 mg/kg

CCCCCC(=O)Oc1c2cccc(OC3OC(C)C4OC(c5ccccc5)OC4C3OC3OC(C)C(O)C(OC)C3O)c2c2oc(=O)c3c(C)ccc4oc(=O)c1c2c43 (stereo not drawn) [Compound No. 196, 6-O-(n-Hexanoyl)-3',4'-O-Benzylidene-Chartreusin]
response vs control in vivo at 40 mg/kg (P-388 leukemia cells): 208% | LD50 [1]: ≥ 80 mg/kg

COC1C(O)C(C)OC(OC2C(Oc3cccc4c(OC(=O)C(Cc5c[nH]c6ccccc56)NC(=O)OCc5ccccc5)c5c(=O)oc6ccc(C)c7c(=O)oc(c34)c5c67)OC(C)C3OC(C)(C)OC32)C1O (stereo not drawn) [compound 126]
response vs control in vivo at 80 mg/kg (P-388 leukemia cells): 150% | LD50 [1]: ≥ 100 mg/kg

C/C=C(\C)C(=O)Oc1c2cccc(OC3OC(C)C4OC(C)(C)OC4C3OC3OC(C)C(O)C(OC)C3O)c2c2oc(=O)c3c(C)ccc4oc(=O)c1c2c43 (stereo not drawn) [Compound No. 173]
response vs control in vivo at 40 mg/kg (P-388 leukemia cells): 152% | response vs control in vivo at 80 mg/kg (P-388 leukemia cells): 192% | LD50 [1]: ≥ 80 mg/kg

COC1C(O)C(C)OC(OC2C(Oc3cccc4c(OC(=O)C(CN)C(C)C)c5c(=O)oc6ccc(C)c7c(=O)oc(c34)c5c67)OC(C)C3OC(c4ccccc4)OC32)C1O (stereo not drawn) [compound 35, 6-O-(α-isopropyl-β-alanyl)-3',4'-O-benzylidene-chartreusin phosphate]
response vs control in vivo at 40 mg/kg (P-388 leukemia cells): 173% | LD50 [1]: ≥ 40 mg/kg

COC1C(O)C(C)OC(OC2C(Oc3cccc4c(OC(=O)C(C)CNC(=O)OCc5ccccc5)c5c(=O)oc6ccc(C)c7c(=O)oc(c34)c5c67)OC(C)C3OC(c4ccccc4)OC32)C1O (stereo not drawn) [Compound No. 69, 6-O-(N-Carbobenzyloxy-β-Amino-Isobutyryl)-3,4-O-Benzylidene-Chartreusin]
response vs control in vivo at 20 mg/kg (P-388 leukemia cells): 179% | response vs control in vivo at 40 mg/kg (P-388 leukemia cells): 222% | LD50 [1]: ≥ 40 mg/kg

COC1C(O)C(C)OC(OC2C(Oc3cccc4c(OC(=O)CCNC(=O)C(Cl)(Cl)Cl)c5c(=O)oc6ccc(C)c7c(=O)oc(c34)c5c67)OC(C)C3OC(C)(C)OC32)C1O (stereo not drawn) [Compound No. 112, 6-O-(N-Trichloroacetyl-β-Alanyl)-3',4'-O-Isopropylidene-Chartreusin]
response vs control in vivo at 50 mg/kg (P-388 leukemia cells; dose d: 50 mg/kg × 3, i.v. on days 1, 5 and 9): 148% | LD50 [1]: ≥ 100 mg/kg

COC1C(O)C(C)OC(OC2C(Oc3cccc4c(OC(=O)CCc5ccccc5)c5c(=O)oc6ccc(C)c7c(=O)oc(c34)c5c67)OC(C)C3OC(c4ccccc4)OC32)C1O (stereo not drawn) [Compound No. 154]
response vs control in vivo at 20 mg/kg (P-388 leukemia cells): 205% | response vs control in vivo at 40 mg/kg (P-388 leukemia cells): 214% | LD50 [1]: ≥ 40 mg/kg

COC1C(O)C(C)OC(OC2C(Oc3cccc4c(OC(=O)COc5ccc(F)cc5)c5c(=O)oc6ccc(C)c7c(=O)oc(c34)c5c67)OC(C)C3OC(C)(C)OC32)C1O (stereo not drawn) [compound 225]
response vs control in vivo at 60 mg/kg (P-388 leukemia cells): 148% | LD50 [1]: ≥ 60 mg/kg

COC1C(O)C(C)OC(OC2C(Oc3cccc4c(OC(=O)CC(C)C)c5c(=O)oc6ccc(C)c7c(=O)oc(c34)c5c67)OC(C)C3OC(C)(C)OC32)C1O (stereo not drawn) [Compound No. 171]
response vs control in vivo at 40 mg/kg (P-388 leukemia cells): 186% | response vs control in vivo at 80 mg/kg (P-388 leukemia cells): 212% | LD50 [1]: ≥ 80 mg/kg

COc1cccc(C(=O)Oc2c3cccc(O[C@@H]4O[C@H](C)[C@@H]5OC(C)(C)O[C@@H]5[C@H]4O[C@H]4O[C@H](C)[C@H](O)[C@H](OC)[C@H]4O)c3c3oc(=O)c4c(C)ccc5oc(=O)c2c3c54)c1 [Compound No. 184]
response vs control in vivo at 40 mg/kg (P-388 leukemia cells): 162% | response vs control in vivo at 80 mg/kg (P-388 leukemia cells): 199% | LD50 [1]: ≥ 80 mg/kg

COC1C(O)C(C)OC(OC2C(Oc3cccc4c(OC(=O)CCC(C)=O)c5c(=O)oc6ccc(C)c7c(=O)oc(c34)c5c67)OC(C)C3OC(c4ccccc4)OC32)C1O (stereo not drawn) [Compound No. 153]
response vs control in vivo at 20 mg/kg (P-388 leukemia cells): 203% | response vs control in vivo at 40 mg/kg (P-388 leukemia cells): 243% | LD50 [1]: ≥ 40 mg/kg

COC1C(O)C(C)OC(OC2C(Oc3cccc4c(OC(=O)CCNC(=O)C(F)(F)F)c5c(=O)oc6ccc(C)c7c(=O)oc(c34)c5c67)OC(C)C3OC4(CCCCC4)OC32)C1O (stereo not drawn) [compound 132]
response vs control in vivo at 40 mg/kg (P-388 leukemia cells): 136% | response vs control in vivo at 80 mg/kg (P-388 leukemia cells): 146% | LD50 [1]: ≥ 100 mg/kg

COC(=O)c1ccc(C(=O)Oc2c3cccc(O[C@@H]4O[C@H](C)[C@@H]5OC(C)(C)O[C@@H]5[C@H]4O[C@H]4O[C@H](C)[C@H](O)[C@H](OC)[C@H]4O)c3c3oc(=O)c4c(C)ccc5oc(=O)c2c3c54)cc1 [compound 207]
response vs control in vivo at 40 mg/kg (P-388 leukemia cells): 130% | response vs control in vivo at 80 mg/kg (P-388 leukemia cells): 192% | LD50 [1]: ≥ 80 mg/kg

COC1C(O)C(C)OC(OC2C(Oc3cccc4c(OC(=O)C5CCCCC5NC(=O)C(F)(F)F)c5c(=O)oc6ccc(C)c7c(=O)oc(c34)c5c67)OC(C)C3OC(c4cccc(F)c4)OC32)C1O (single isomer, unassigned) [Compound No. 27, 6-O-(N-Trifluoroacetyl-2-Amino-Cyclohexanecarbonyl)-3',4'-O-(m-Fluorobenzylidene)-Chartreusin]
response vs control in vivo at 20 mg/kg (P-388 leukemia cells): 179% | LD50 [1]: ≥ 30 mg/kg

C=CCCC(=O)Oc1c2cccc(O[C@@H]3O[C@H](C)[C@@H]4OC(c5ccccc5)O[C@@H]4[C@H]3O[C@H]3O[C@H](C)[C@H](O)[C@H](OC)[C@H]3O)c2c2oc(=O)c3c(C)ccc4oc(=O)c1c2c43 (stereo partly drawn) [compound 192]
response vs control in vivo at 10 mg/kg (P-388 leukemia cells): 153% | response vs control in vivo at 20 mg/kg (P-388 leukemia cells): 199% | LD50 [1]: ≥ 40 mg/kg

COC1C(O)C(C)OC(OC2C(Oc3cccc4c(OC(=O)COC(=O)CCCl)c5c(=O)oc6ccc(C)c7c(=O)oc(c34)c5c67)OC(C)C3OC(c4ccccc4)OC32)C1O (stereo not drawn) [Compound No. 149]
response vs control in vivo at 20 mg/kg (P-388 leukemia cells): 203% | LD50 [1]: ≥ 40 mg/kg

COC1C(O)C(C)OC(OC2C(Oc3cccc4c(OC(=O)C5CC=CCC5)c5c(=O)oc6ccc(C)c7c(=O)oc(c34)c5c67)OC(C)C3OC(C)(C)OC32)C1O (stereo not drawn) [Compound No. 223, 6-O-(3-Cyclohexene-1-Carbonyl)-3',4'-O-Isopropylidene-Chartreusin]
response vs control in vivo at 60 mg/kg (P-388 leukemia cells): 172% | LD50 [1]: ≥ 60 mg/kg

CO[C@H]1[C@@H](O)[C@@H](C)O[C@H](O[C@H]2[C@H](Oc3cccc4c(OC(=O)CCC(=O)c5ccc(F)cc5)c5c(=O)oc6ccc(C)c7c(=O)oc(c34)c5c67)O[C@H](C)[C@@H]3OC(C)(C)O[C@@H]32)[C@@H]1O [compound 206]
response vs control in vivo at 40 mg/kg (P-388 leukemia cells): 139% | response vs control in vivo at 80 mg/kg (P-388 leukemia cells): 180% | LD50 [1]: ≥ 80 mg/kg

COC1C(O)C(C)OC(OC2C(Oc3cccc4c(OC(=O)CCCCCCCNC(=O)C(F)(F)F)c5c(=O)oc6ccc(C)c7c(=O)oc(c34)c5c67)OC(C)C3OC(C)(C)OC32)C1O (stereo not drawn) [compound 99]
response vs control in vivo at 80 mg/kg (P-388 leukemia cells): 136% | LD50 [1]: ≥ 100 mg/kg

CO[C@H]1[C@@H](O)[C@@H](C)O[C@H](O[C@H]2[C@H](Oc3cccc4c(OC(=O)[C@@H](NC(=O)CNC(=O)CN)C(C)C)c5c(=O)oc6ccc(C)c7c(=O)oc(c34)c5c67)O[C@H](C)[C@@H]3OC(c4ccccc4)O[C@@H]32)[C@@H]1O (stereo partly drawn) [compound 36, 6-O-(glycyl-glycyl-valyl)-3',4'-O-benzylidene-chartreusin phosphate]
response vs control in vivo at 10 mg/kg (P-388 leukemia cells): 135% | response vs control in vivo at 20 mg/kg (P-388 leukemia cells): 157% | LD50 [1]: ≥ 40 mg/kg

COC1C(O)C(C)OC(OC2C(Oc3cccc4c(OC(=O)C(NC(=O)OCc5ccccc5)C(C)C)c5c(=O)oc6ccc(C)c7c(=O)oc(c34)c5c67)OC(C)C3OC(c4ccccc4Cl)OC32)C1O (stereo not drawn) [compound 105]
response vs control in vivo at 80 mg/kg (P-388 leukemia cells): 216% | LD50 [1]: ≥ 80 mg/kg

COC1C(O)C(C)OC(OC2C(Oc3cccc4c(OC(=O)CCNC(=O)C(Cl)(Cl)Cl)c5c(=O)oc6ccc(C)c7c(=O)oc(c34)c5c67)OC(C)C3OC(c4cccc(Br)c4)OC32)C1O (stereo not drawn) [Compound No. 56]
response vs control in vivo at 40 mg/kg (P-388 leukemia cells): 165% | response vs control in vivo at 80 mg/kg (P-388 leukemia cells): 219% | LD50 [1]: ≥ 80 mg/kg

CO[C@H]1[C@@H](O)[C@@H](C)O[C@H](O[C@H]2[C@H](Oc3cccc4c(OC(=O)c5ccc(Br)cc5)c5c(=O)oc6ccc(C)c7c(=O)oc(c34)c5c67)O[C@H](C)[C@@H]3OC(C)(C)O[C@@H]32)[C@@H]1O [Compound No. 179]
response vs control in vivo at 40 mg/kg (P-388 leukemia cells): 136% | response vs control in vivo at 80 mg/kg (P-388 leukemia cells): 208% | LD50 [1]: ≥ 80 mg/kg
